Calls of active or inactive are those of the source.
Tests used:
[1] = target: NACHT, LRR and PYD domains-containing protein 3 (Mus musculus) (UniProt Q8R4B8); experiment: Inhibition of NLRP3 inflammasome oligomerization in LPS-primed mouse BMDM cells assessed as prevention of ASC specks formation at 1 uM pretreated for 15 mins followed by MSU stimulation for 30 mins by DAPI staining based confocal microscopic analysis; type: cell-based; settings: time 45.0 min
Mus musculus [2] = experiment: Analgesic activity in MSU-induced mechanical hyperalgesia in wild type C57BL/6J mouse model assessed as decrease in paw withdrawal threshold at 3 mg/kg, ip measured after 24 hrs by von Frey test (Rvb= 72%); type: functional; parameters: scale not given: the % may be the effect or the level left
AML12 = experiment: Cytotoxicity against mouse AML12 cells assessed as reduction in cell viability at 0.01 to 30 uM measured after 24 hrs by MTT assay; type: toxicity, cell-based; settings: aml12, 24 h, dose 0.01-30 µM
[3] = target: NACHT, LRR and PYD domains-containing protein 3 (Mus musculus) (UniProt Q8R4B8); experiment: Inhibition of NLRP3 inflammasome activation in LPS-primed mouse BMDM cells assessed as inhibition of IL-1beta cleavage in supernatant at 1 uM pretreated for 15 mins followed by ATP addition for 30 mins by Western blot analysis; type: cell-based; settings: time 45.0 min
J774.A1 [4] = experiment: Cytotoxicity against mouse J774.A1 cells assessed as reduction in cell viability at 30 uM measured after 24 hrs by MTT assay relative to control; type: toxicity, cell-based; settings: j774.a1, 24 h
Mus musculus [5] = experiment: Antiinflammatory activity in MSU-induced acute gout arthritis in wild type male C57BL/6J mouse model assessed as decrease in paw inflammation at 3 to 10 mg/kg, ip measured after 24 hrs; type: functional, organism-based; settings: dose 3-10 mg/kg
Mus musculus [6] = experiment: Antiinflammatory activity in MSU-induced acute gout arthritis in wild type male C57BL/6J mouse model assessed as decrease in paw inflammation at 3 mg/kg, ip measured after 24 hrs relative to control; type: functional; parameters: scale not given: the % may be the effect or the level left
Mus musculus [7] = experiment: Antiinflammatory activity in MSU-induced acute gout arthritis in NLRP3 knockout male C57BL/6J mouse model assessed as reduction in paw inflammation at 3 to 10 mg/kg, ip measured after 24 hrs relative to control; type: functional; parameters: scale not given: the % may be the effect or the level left; settings: dose 3-10 mg/kg
Mus musculus [8] = experiment: Antiinflammatory activity in MSU-induced acute gout arthritis in wild type female C57BL/6J mouse model assessed as decrease in paw inflammation at 3 mg/kg, ip measured after 24 hrs relative to control; type: functional; parameters: scale not given: the % may be the effect or the level left
Mus musculus [9] = experiment: Analgesic activity in MSU-induced mechanical hyperalgesia in wild type C57BL/6J mouse model assessed as decrease in paw withdrawal threshold at 10 mg/kg, ip measured after 24 hrs by von Frey test (Rvb= 72%); type: functional; parameters: scale not given: the % may be the effect or the level left
[10] = target: NACHT, LRR and PYD domains-containing protein 3 (Mus musculus) (UniProt Q8R4B8); experiment: Inhibition of NLRP3 inflammasome oligomerization in LPS-primed mouse BMDM cells assessed as prevention of ASC specks formation at 1 uM pretreated for 15 mins followed by ATP stimulation for 30 mins by DAPI staining based confocal microscopic analysis; type: cell-based; settings: time 45.0 min
Mus musculus [11] = experiment: Antiinflammatory activity in MSU-induced acute gout arthritis in wild type female C57BL/6J mouse model assessed as decrease in paw inflammation at 10 mg/kg, ip measured after 24 hrs relative to control; type: functional; parameters: scale not given: the % may be the effect or the level left
J774.A1 [12] = experiment: Cytotoxicity against mouse J774.A1 cells assessed as reduction in cell viability at 0.01 to 3 uM measured after 24 hrs by MTT assay; type: toxicity, cell-based; settings: j774.a1, 24 h, dose 0.01-3 µM
[13] = target: NACHT, LRR and PYD domains-containing protein 3 (Mus musculus, UniProt Q8R4B8); experiment: Inhibition of NLRP3 inflammasome activation in LPS-primed mouse BMDM cells assessed as reduction in ATP induced IL-1beta release pretreated for 15 mins followed by ATP stimulation for 30 mins by ELISA; type: cell-based
NACHT, LRR and PYD domains-containing protein 3, sequence (Q8R4B8 whole entry, the tested form may be a part): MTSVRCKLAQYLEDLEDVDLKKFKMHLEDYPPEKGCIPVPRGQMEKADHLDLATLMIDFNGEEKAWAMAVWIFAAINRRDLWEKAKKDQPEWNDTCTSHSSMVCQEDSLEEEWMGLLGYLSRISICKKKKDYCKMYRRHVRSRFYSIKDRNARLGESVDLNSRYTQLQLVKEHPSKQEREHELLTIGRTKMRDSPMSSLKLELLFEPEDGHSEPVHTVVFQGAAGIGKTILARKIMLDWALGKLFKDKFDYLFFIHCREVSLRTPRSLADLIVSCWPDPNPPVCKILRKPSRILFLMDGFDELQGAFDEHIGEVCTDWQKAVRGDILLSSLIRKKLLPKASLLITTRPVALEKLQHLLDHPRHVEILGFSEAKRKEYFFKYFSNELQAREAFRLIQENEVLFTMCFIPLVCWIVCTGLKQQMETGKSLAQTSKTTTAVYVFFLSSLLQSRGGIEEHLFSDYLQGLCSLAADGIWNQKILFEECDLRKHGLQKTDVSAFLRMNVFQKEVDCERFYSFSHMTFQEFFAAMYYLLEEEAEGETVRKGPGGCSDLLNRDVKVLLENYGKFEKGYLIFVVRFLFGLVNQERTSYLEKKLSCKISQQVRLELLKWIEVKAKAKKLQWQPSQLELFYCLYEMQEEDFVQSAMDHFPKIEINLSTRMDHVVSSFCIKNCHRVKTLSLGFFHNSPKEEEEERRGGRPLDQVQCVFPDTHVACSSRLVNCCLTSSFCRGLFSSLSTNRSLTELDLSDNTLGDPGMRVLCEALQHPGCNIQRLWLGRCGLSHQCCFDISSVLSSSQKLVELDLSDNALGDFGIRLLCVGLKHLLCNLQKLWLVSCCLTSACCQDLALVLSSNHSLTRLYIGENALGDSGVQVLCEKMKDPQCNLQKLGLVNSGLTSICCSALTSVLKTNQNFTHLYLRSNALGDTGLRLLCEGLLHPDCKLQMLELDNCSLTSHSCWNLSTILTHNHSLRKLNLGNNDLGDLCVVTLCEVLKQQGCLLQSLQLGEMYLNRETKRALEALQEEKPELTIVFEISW

[14] = target: NACHT, LRR and PYD domains-containing protein 3 (Mus musculus) (UniProt Q8R4B8); experiment: Inhibition of NLRP3 inflammasome activation in LPS-primed mouse BMDM cells assessed as inhibition of caspase-1 cleavage in supernatant at 1 uM pretreated for 15 mins followed by ATP addition for 30 mins by Western blot analysis; type: cell-based; settings: time 45.0 min
Mus musculus [15] = experiment: Antiinflammatory activity in MSU-induced acute gout arthritis in NLRP3 knockout female C57BL/6J mouse model assessed as reduction in paw inflammation at 3 to 10 mg/kg, ip measured after 24 hrs relative to control; type: functional; parameters: scale not given: the % may be the effect or the level left; settings: dose 3-10 mg/kg
J774.A1 [16] = experiment: Cytotoxicity against mouse J774.A1 cells assessed as reduction in cell viability at 10 uM measured after 24 hrs by MTT assay relative to control; type: toxicity, cell-based; settings: j774.a1, 24 h
Mus musculus [17] = experiment: Antiinflammatory activity in MSU-induced acute gout arthritis in wild type male C57BL/6J mouse model assessed as decrease in paw inflammation at 10 mg/kg, ip measured after 24 hrs relative to control; type: functional; parameters: scale not given: the % may be the effect or the level left
Mus musculus [18] = experiment: Antiinflammatory activity in MSU-induced acute gout arthritis in NLRP3 knock out C57BL/6J mouse model assessed as reduction in paw swelling at 3 mg/kg, ip measured after 24 hrs relative to control; type: functional; parameters: scale not given: the % may be the effect or the level left
Mus musculus [19] = experiment: Antiinflammatory activity in MSU-induced acute gout arthritis in wild type male C57BL/6J mouse model assessed as decrease in paw inflammation at 3 mg/kg, ip measured after 24 hrs; type: functional, organism-based

NACHT, LRR and PYD domains-containing protein 3 (Mus musculus), sequence (Q8R4B8 whole entry, the tested form may be a part): as above

inhibition [1] | inhibition [3] | inhibition [10] | IC50 [13] [nM] | inhibition [14] | Structure (SMILES) | Activity (Mus musculus [2]) [%] | Activity (AML12) | Activity (J774.A1 [4]) [%] | Activity (Mus musculus [5]) | Activity (Mus musculus [6]) [%] | Activity (Mus musculus [7]) [%] | Activity (Mus musculus [8]) [%] | Activity (Mus musculus [9]) [%] | Activity (Mus musculus [11]) [%] | Activity (J774.A1 [12]) | Activity (Mus musculus [15]) [%] | Activity (J774.A1 [16]) [%] | Activity (Mus musculus [17]) [%] | Activity (Mus musculus [18]) [%] | Activity (Mus musculus [19])
Active | Active | Active | 0.23 | Active | Cc1cc(C)cc(NC(=O)[N-]S(=O)(=O)c2cc(C(C)(C)O)co2)c1.[Na+] | 47 | Non-Toxic | 20 | Active | 40 | 65 | 33 | 19 | 52 | Non-Toxic | 60 | 20 | 66 | – | –
– | – | – | 0.39 | – | CC(C)(O)c1coc(S(=O)(=O)NC(=O)Nc2c3c(cc4c2CCC4)CCC3)c1 | – | Non-Toxic | 30 | – | – | – | – | – | – | Non-Toxic | – | 30 | – | 33 | Active

— ChEMBL document CHEMBL5154853, “Synthesis and Pharmacological Evaluation of New N-Sulfonylureas as NLRP3 Inflammasome Inhibitors: Identification of a Hit Compound to Treat Gout” (J Med Chem, 2022)
